Measurements published in PubChem BioAssay AID296 (DTP/NCI, 2004).
Several values for one entry are separate records, joined by “and”; a condition that tells them apart may be missing. Identical values can stand only once. Records with an inconclusive call do not appear.

System: MX-1 breast xenograft, nude mice, tumor weight T/C
Test: NCI In Vivo Anticancer Drug Screen. Data for tumor model Human Mammary Carcinoma MX-1 Xenograft (intrarenal inoculation) in NU/NU Swiss (nude) mice
Conditions: endpoint: mean tumor weight change, higher = larger tumour
Method in brief: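 Antitumour effect measured in vivo against vehicle controls, expressed as T/C.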

[1] = dose: 600.0 mg/kg/injection, schedule: Q04DX003 (sc), vehicle: suspension in saline
[2] = dose: 300.0 mg/kg/injection, schedule: Q04DX003 (sc), vehicle: saline with Tween-80
[3] = dose: 600.0 mg/kg/injection, schedule: Q04DX003 (sc), vehicle: saline with Tween-80
[4] = dose: 300.0 mg/kg/injection, schedule: Q04DX003 (sc), vehicle: saline
[5] = dose: 600.0 mg/kg/injection, schedule: Q04DX003 (sc), vehicle: saline

NC(=O)SCC(N)C(=O)O (centres undefined)
T/C (dose: 225.0 mg/kg/injection, schedule: Q04DX003 (sc), vehicle: suspension in saline): 73 % of control | T/C (dose: 400.0 mg/kg/injection, schedule: Q04DX003 (sc), vehicle: suspension in saline): 62 % of control | T/C (dose: 450.0 mg/kg/injection, schedule: Q04DX003 (sc), vehicle: suspension in saline): 49 % of control | T/C [1]: 57 % of control

Cc1ccc2c(ccc(CC(=S)[S-])[n+]2C)c1
T/C (dose: 50.0 mg/kg/injection, schedule: Q01DX010 (sc), vehicle: Klucel (hydroxypropylcellulose) (HPC)): 57 % of control | T/C (dose: 100.0 mg/kg/injection, schedule: Q01DX010 (sc), vehicle: Klucel (hydroxypropylcellulose) (HPC)): 80 % of control | T/C (dose: 200.0 mg/kg/injection, schedule: Q01DX010 (sc), vehicle: Klucel (hydroxypropylcellulose) (HPC)): 28 % of control | T/C (dose: 400.0 mg/kg/injection, schedule: Q01DX010 (sc), vehicle: Klucel (hydroxypropylcellulose) (HPC)): 107 % of control

NC(=O)c1ncn(C2OC(CO)C(O)C2O)n1 (centres undefined)
T/C (dose: 225.0 mg/kg/injection, schedule: Q04DX003 (sc), vehicle: saline): 108 % of control | T/C (dose: 450.0 mg/kg/injection, schedule: Q04DX003 (sc), vehicle: saline): 61 % of control | T/C (dose: 900.0 mg/kg/injection, schedule: Q04DX003 (sc), vehicle: saline): 45 % of control

O=c1[nH]cnc2n[nH]nc12
T/C (dose: 100.0 mg/kg/injection, schedule: Q04DX003 (sc), vehicle: Klucel (hydroxypropylcellulose) (HPC)): 54 % of control | T/C (dose: 200.0 mg/kg/injection, schedule: Q04DX003 (sc), vehicle: Klucel (hydroxypropylcellulose) (HPC)): 27 % of control | T/C (dose: 400.0 mg/kg/injection, schedule: Q04DX003 (sc), vehicle: Klucel (hydroxypropylcellulose) (HPC)): 48 % of control | T/C (dose: 800.0 mg/kg/injection, schedule: Q04DX003 (sc), vehicle: Klucel (hydroxypropylcellulose) (HPC)): 31 % of control

C/C=C/C=C1/OC(C)=C(C(C)=O)C1=O
T/C (dose: 200.0 mg/kg/injection, schedule: Q04DX003 (sc), vehicle: saline with Tween-80): 104 % of control | T/C (dose: 400.0 mg/kg/injection, schedule: Q04DX003 (sc), vehicle: saline with Tween-80): 85 % of control

COC(=O)C(Cl)(Cl)N=Nc1c(Cl)cc(Cl)c(C)c1Cl
T/C [2]: 78 % of control | T/C [3]: 74 % of control

CCC(CC)COC(=O)c1ccccc1C(=O)OCC(CC)CC
T/C [4]: 112 % of control | T/C [5]: 82 % of control | T/C (dose: 1200.0 mg/kg/injection, schedule: Q04DX003 (sc), vehicle: saline): 110 % of control | T/C (dose: 2400.0 mg/kg/injection, schedule: Q04DX003 (sc), vehicle: saline): 88 % of control

Cc1cc(NCCCCCCCNc2cc(C)nc3cc(N)ccc23)c2ccc(N)cc2n1
T/C (dose: 12.5 mg/kg/injection, schedule: Q01DX010 (sc), vehicle: saline with Tween-80): 53 % of control and 56 % of control and 72 % of control

c1cn[nH]c1
T/C (dose: 75.0 mg/kg/injection, schedule: Q04DX003 (ip), vehicle: saline): 106 % of control | T/C (dose: 150.0 mg/kg/injection, schedule: Q04DX003 (ip), vehicle: saline): 96 % of control | T/C (dose: 300.0 mg/kg/injection, schedule: Q04DX003 (ip), vehicle: saline): 69 % of control | T/C (dose: 600.0 mg/kg/injection, schedule: Q04DX003 (ip), vehicle: saline): 71 % of control

CSC(SC)=C1C(=O)NC(=O)NC1=O
T/C (dose: 75.0 mg/kg/injection, schedule: Q04DX003 (sc), vehicle: suspension in saline): 69 % of control | T/C (dose: 150.0 mg/kg/injection, schedule: Q04DX003 (sc), vehicle: suspension in saline): 75 % of control | T/C (dose: 300.0 mg/kg/injection, schedule: Q04DX003 (sc), vehicle: suspension in saline): 108 % of control | T/C [1]: 42 % of control

COc1cc(Cl)ccc1C
T/C [2]: 108 % of control | T/C [3]: 88 % of control | T/C (dose: 1200.0 mg/kg/injection, schedule: Q04DX003 (sc), vehicle: saline with Tween-80): 95 % of control | T/C (dose: 2400.0 mg/kg/injection, schedule: Q04DX003 (sc), vehicle: saline with Tween-80): 76 % of control

CCN(CC)CCC(=O)c1ccccc1
T/C (dose: 75.0 mg/kg/injection, schedule: Q04DX003 (sc), vehicle: saline with Tween-80): 94 % of control | T/C (dose: 150.0 mg/kg/injection, schedule: Q04DX003 (sc), vehicle: saline with Tween-80): 100 % of control | T/C [2]: 115 % of control

CCOC(=O)C(N)CSC(=O)NC (centres undefined)
T/C (dose: 112.0 mg/kg/injection, schedule: Q04DX003 (sc), vehicle: saline): 12 % of control | T/C [4]: 33 % of control | T/C (dose: 400.0 mg/kg/injection, schedule: Q04DX003 (sc), vehicle: saline): 15 % of control | T/C [5]: 8 % of control | T/C (dose: 800.0 mg/kg/injection, schedule: Q04DX003 (sc), vehicle: saline): 3 % of control
